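96-well plates; 48 h exposure; 5 concentrations. Endpoints by linear interpolation between flanking doses. Not reached: highest tested concentration assigned. GI50: concentration for 50% inhibition of growth.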 Calls of active or inactive are those of the source. Rule as the data show it: active = GI50 up to about 1.1 µM and inactive = higher.

Experimental findings from ChEMBL document CHEMBL1201862, “PubChem BioAssay data set” (2004) are described below.

Some test systems named below: HT-29; NCI-H460; SF-268; COLO 205; TK-10; EKVX; SR; ACHN; OVCAR-4; HL-60; UACC-257; NCI-H522; HCC 2998; SNB-75; HCT-15; M14.
Common to all, as to assay: NCI-60 cell line screen, 48 h

Regarding `N#Cc1ccc(Cc2ccccn2)cc1Cl`, the GI50 in the test with HT-29, in the test with NCI-H460, with SF-268, with COLO 205, in the test with TK-10 and in the test on EKVX was > 100 µM (inactive) each time. Besides, the GI50 in the test with SR, in the test on ACHN, in the test on OVCAR-4, with HL-60, in the test on UACC-257 and in the test with NCI-H522 was > 100 µM (inactive) each time.

Regarding `CCOC(=O)NC/C=C/COC1CCCCO1` (stereo not drawn), the GI50 in the test on HCC 2998, in the test with SNB-75, in the test with NCI-H460, with SF-268, in the test on COLO 205 and in the test on TK-10 was > 100 µM (inactive) in each case. Moreover, the GI50 was > 100 µM (inactive) with SR; > 100 µM (inactive) in the test on ACHN; above 100 µM in the test with HCT-15; > 100 µM (inactive) in the test with OVCAR-4; > 100 µM (inactive) in the test on HL-60; > 100 µM (inactive) in the test on UACC-257. Also, the GI50 in the test with NCI-H522 and in the test on M14 was > 100 µM (inactive) each time.

In the case of `CCN1C2=NC(=O)N(C)C(=O)C2(Cl)C(C(SC)S(=O)(=O)c2ccc(C)cc2)c2ccccc21` (stereo not drawn), the GI50 in the test with HT-29 was 34.8 µM (inactive); in the test on HCC 2998, > 100 µM (inactive); in the test with SNB-75 it was 20.7 µM (inactive); in the test with NCI-H460, 83.4 µM (inactive); in the test with SF-268, 39.2 µM (inactive); in the test with COLO 205 it was 31.6 µM (inactive). Further, the GI50 is > 100 µM (inactive) in the test on TK-10; > 100 µM (inactive) with EKVX; 22.9 µM (inactive) in the test on OVCAR-4; 4.2 µM (inactive) in the test with HL-60; 23.6 µM (inactive) with UACC-257; 11.8 µM (inactive) in the test on NCI-H522. Further, the GI50 in the test on M14 is 24.2 µM (inactive).

`COc1ccc(C(=C(C#N)C#N)c2ccc(OC)cc2)cc1`: the GI50 in the test on HT-29, in the test with HCC 2998, in the test on NCI-H460, with SF-268, with COLO 205 and in the test with TK-10 was > 100 µM (inactive) each time. Also, the GI50 was > 100 µM (inactive) in the test on EKVX; 59.4 µM (inactive) with SR; > 100 µM (inactive) with ACHN; above 100 µM in the test on HCT-15; > 100 µM (inactive) in the test on OVCAR-4; > 100 µM (inactive) in the test on HL-60. Also, the values for the GI50 in the test on UACC-257, in the test with NCI-H522 and with M14 were > 100 µM (inactive), 30 µM (inactive) and > 100 µM (inactive), respectively.

Take `COc1ccc(/C=C2\C(=O)Nc3ccccc32)cc1OC`: the GI50 in the test on HT-29 is > 100 µM (inactive); in the test with SNB-75, 24.5 µM (inactive); in the test with NCI-H460 it was 78.9 µM (inactive); with SF-268 it was > 100 µM (inactive); in the test on COLO 205, > 100 µM (inactive); in the test on TK-10 it was > 100 µM (inactive). In addition, the GI50 was > 100 µM (inactive) in the test with EKVX; > 100 µM (inactive) in the test on ACHN; 53 µM with HCT-15; 97.3 µM (inactive) in the test with OVCAR-4; 46.7 µM (inactive) in the test with HL-60; > 100 µM (inactive) with UACC-257. Besides, the figures for the GI50 with NCI-H522 and with M14 were 79.3 µM (inactive) and > 100 µM (inactive), respectively.

For `O=C(N/C(=C\c1ccc(Cl)cc1)c1nc2ccccc2[nH]1)c1ccccc1`, the GI50 with HT-29 is 27.8 µM (inactive); in the test with SNB-75, 19.7 µM (inactive); in the test with NCI-H460, 22.1 µM (inactive); in the test with SF-268, 16.3 µM (inactive); in the test with COLO 205, 17.7 µM (inactive); with TK-10, 30.3 µM (inactive). Also, the GI50 with EKVX is 26.9 µM (inactive); in the test with ACHN, 27.5 µM (inactive); in the test with HCT-15, 26.4 µM; in the test on OVCAR-4, 14.7 µM (inactive); in the test on UACC-257 it was 19.2 µM (inactive); with NCI-H522, 12.7 µM (inactive). For the same molecule, the GI50 in the test on M14 is 18.7 µM (inactive).

Turning to `N#Cc1c(-c2ccccc2)c(-c2ccccc2)cc2c(=O)c3ccc(Cl)cc3[nH]c12`, the GI50 with HT-29, in the test on HCC 2998, in the test on SNB-75, with NCI-H460, in the test with SF-268 and with COLO 205 was > 100 µM (inactive) in each case. Besides, the GI50 in the test on TK-10 was > 100 µM (inactive); in the test on EKVX, > 100 µM (inactive); with SR, > 100 µM (inactive); in the test on ACHN, > 100 µM (inactive); in the test on HCT-15, above 100 µM; in the test with HL-60, > 100 µM (inactive). Also, the GI50 with UACC-257 is > 100 µM (inactive).

For `O=C1[C@@H]2C(c3ccccc3Br)=NO[C@@H]2C(=O)N1c1ccc(Cc2ccc(N3C(=O)[C@H]4C(c5ccccc5Br)=NO[C@H]4C3=O)cc2)cc1`, the GI50 in the test on HT-29 is > 100 µM (inactive); in the test on HCC 2998, > 100 µM (inactive); in the test with SNB-75, 77.3 µM (inactive); in the test on NCI-H460, > 100 µM (inactive); in the test with SF-268, > 100 µM (inactive); in the test on COLO 205 it was > 100 µM (inactive). The GI50 was > 100 µM (inactive) in the test on TK-10; > 100 µM (inactive) in the test on EKVX; > 100 µM (inactive) in the test on ACHN; above 100 µM in the test on HCT-15; > 100 µM (inactive) in the test on OVCAR-4; > 100 µM (inactive) with HL-60. The GI50 with UACC-257 and in the test on M14 was > 100 µM (inactive) each time.

With `CCn1c(C)nc([N+](=O)[O-])c1Sc1ncc[nH]1`, the GI50 is 78.7 µM (inactive) in the test on HT-29; > 100 µM (inactive) in the test on HCC 2998; 50.6 µM (inactive) in the test with SNB-75; 66.2 µM (inactive) with NCI-H460; 69.7 µM (inactive) in the test on SF-268; 27.9 µM (inactive) in the test on COLO 205. Also, the GI50 in the test with TK-10 was > 100 µM (inactive); in the test with EKVX, 75.7 µM (inactive); with SR, 23.3 µM (inactive); with ACHN it was 48.1 µM (inactive); in the test on OVCAR-4, 64.4 µM (inactive); with UACC-257 it was 39.4 µM (inactive). Besides, the results for the GI50 in the test with NCI-H522 and with M14 were 15.6 µM (inactive) and 32.4 µM (inactive), respectively.

As to `COC(=O)c1cc2c(=O)n(C)c3ccccc3n2c1C(=O)OC`, the GI50 is 67.5 µM (inactive) in the test with HT-29; 33.5 µM (inactive) in the test with HCC 2998; 16.1 µM (inactive) with SNB-75; > 100 µM (inactive) in the test on NCI-H460; 30.3 µM (inactive) in the test with SF-268; > 100 µM (inactive) with COLO 205. Also, the GI50 in the test with TK-10 is 25.6 µM (inactive); in the test with EKVX it was 26.9 µM (inactive); with ACHN, 83.2 µM (inactive); in the test on HCT-15, 80.2 µM; in the test with OVCAR-4 it was > 100 µM (inactive); in the test with UACC-257, > 100 µM (inactive). The GI50 was 20 µM (inactive) with NCI-H522 and 47.9 µM (inactive) in the test on M14.

Take `CC[C@H]1CC(=O)c2c(cc3c(c2O)C(=O)c2ccccc2C3=O)[C@@]1(C#N)C(=O)OC(C)(C)C`: the GI50 in the test with HT-29 is 3.37 µM (inactive); with HCC 2998 it was 5.47 µM (inactive); with SNB-75, 4.1 µM (inactive); with NCI-H460 it was 2.7 µM (inactive); in the test on SF-268, 5.36 µM (inactive); with COLO 205, 1.96 µM (inactive). In addition, the GI50 is 4.78 µM (inactive) with TK-10; 4.94 µM (inactive) in the test with EKVX; 3.66 µM (inactive) in the test on SR; 3.31 µM (inactive) in the test on ACHN; 2.07 µM in the test with HCT-15; 2.07 µM (inactive) in the test on UACC-257. The GI50 in the test on NCI-H522 was 2.29 µM (inactive); in the test on M14, 3.65 µM (inactive).

As for `CN(C)CCNC(=O)c1cc2ccccc2c2nc3ccccc3nc12`, the GI50 in the test on HT-29 was 0.536 µM (active); with HCC 2998, 1.1 µM (active); with SNB-75, 1.19 µM (inactive); with SF-268, 0.0617 µM (active); in the test on COLO 205 it was 0.828 µM (active); in the test on TK-10, 1.23 µM (inactive). Moreover, the GI50 in the test on EKVX was 2.06 µM (inactive); in the test on SR it was 0.163 µM (active); in the test with ACHN it was 0.407 µM (active); with HCT-15 it was 0.522 µM; in the test with OVCAR-4 it was 0.792 µM (active); with UACC-257, 1.45 µM (inactive). Further, the values for the GI50 with NCI-H522 and in the test with M14 were 1.89 µM (inactive) and 1.75 µM (inactive), respectively.

Consider `COc1ccc2c(c1)O[C@@H]1c3ccc(OC)cc3OC[C@H]21`, for which the GI50 is > 10 µM (inactive) with HT-29; 35.2 µM (inactive) in the test on HCC 2998; 16 µM (inactive) with SNB-75; 26.2 µM (inactive) in the test with NCI-H460; 38.2 µM (inactive) in the test on SF-268; 35.6 µM (inactive) in the test on TK-10. Moreover, the GI50 in the test on SR was 22.9 µM (inactive); in the test on ACHN, 52.4 µM (inactive); in the test on HCT-15 it was 25.8 µM; in the test with OVCAR-4, 29.2 µM (inactive); with HL-60, 19.3 µM (inactive); in the test on UACC-257, > 10 µM (inactive). For the same molecule, the GI50 is 15.3 µM (inactive) in the test on NCI-H522 and 26.9 µM (inactive) with M14.

In the case of `CC(=O)OC1CC2CCN3C(=O)c4cc5c(cc4[C@H](C1OC(C)=O)C23)OCO5` (stereo partly drawn), the GI50 in the test with HT-29, in the test on HCC 2998, with SNB-75, with NCI-H460, with SF-268 and with COLO 205 was > 100 µM (inactive) throughout. Moreover, the GI50 in the test on TK-10 is > 100 µM (inactive); in the test with EKVX, > 100 µM (inactive); in the test on SR, > 100 µM (inactive); in the test with ACHN it was > 100 µM (inactive); with HCT-15, above 100 µM; in the test with HL-60, > 100 µM (inactive). The GI50 in the test with UACC-257, in the test with NCI-H522 and in the test with M14 was > 100 µM (inactive) each time.
